Target: T1, STAT 6 (Homo sapiens, UniProt P42226)
T1 construct: host or cells: H292
T1 sequence (P42226 1-847): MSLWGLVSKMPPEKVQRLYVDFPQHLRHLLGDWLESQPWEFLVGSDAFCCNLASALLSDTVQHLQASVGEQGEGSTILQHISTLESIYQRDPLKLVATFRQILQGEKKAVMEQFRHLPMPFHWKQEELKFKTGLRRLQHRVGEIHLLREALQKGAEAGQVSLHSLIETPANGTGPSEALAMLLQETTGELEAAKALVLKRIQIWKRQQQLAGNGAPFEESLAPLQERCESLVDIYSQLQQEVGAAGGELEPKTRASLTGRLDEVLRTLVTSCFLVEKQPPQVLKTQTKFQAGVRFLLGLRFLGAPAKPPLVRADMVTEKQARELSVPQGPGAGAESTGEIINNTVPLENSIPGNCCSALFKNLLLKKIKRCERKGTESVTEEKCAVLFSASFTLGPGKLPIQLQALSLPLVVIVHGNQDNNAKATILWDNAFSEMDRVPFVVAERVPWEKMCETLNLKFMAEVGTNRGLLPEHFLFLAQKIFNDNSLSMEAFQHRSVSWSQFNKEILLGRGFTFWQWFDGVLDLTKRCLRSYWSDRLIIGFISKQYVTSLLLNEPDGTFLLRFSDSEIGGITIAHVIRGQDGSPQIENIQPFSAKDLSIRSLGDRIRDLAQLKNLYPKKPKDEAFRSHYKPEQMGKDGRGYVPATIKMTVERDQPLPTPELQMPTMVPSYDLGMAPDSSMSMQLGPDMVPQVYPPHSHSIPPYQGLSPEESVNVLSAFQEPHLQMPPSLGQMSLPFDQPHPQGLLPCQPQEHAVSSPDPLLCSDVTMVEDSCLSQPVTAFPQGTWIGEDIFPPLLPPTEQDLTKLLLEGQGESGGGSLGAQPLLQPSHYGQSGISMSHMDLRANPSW
Experiment: STAT 6 tyrosine phosphorylation in IL-4-stimulated H292 cell (western blotting)
Format: cell-based
Settings: 1 μM compound, 10 ng/ml human IL-4, disappearance of the about 110 kDa band
Method: Measurement of STAT 6 Tyrosine Phosphorylation
The H292 cell (ATCC) (5×10^5 cells/0.5 ml) was inoculated into a 12 well plate (IWAKI) and cultured overnight, and then stimulation with 10 ng/ml of human IL-4 (Genzyme techne) was carried out. In the case of the evaluation of compounds, compound dilutions were added to the wells 20 minutes before the IL-4 stimulation. Also, regarding the dilution of compounds, dilution was carried out using 10% FBS-containing RPMI 1640 such that the final concentration of DMSO in which each compound was dissolved became 0.1% or less. This was washed three times with ice-cooled physiological phosphate buffer 20 minutes after the IL-4 stimulation. After the washing, 100 μl/well of a cell lysis solution (TNE buffer: 10 mM Tris-HCl pH 7.8, 1% NP-40, 0.15 M NaCl, 1 mM EDTA, 10 μg/ml aprotinin, 1 mM NaF and 1 mM Na3VO4) was added. The cell lysate was recovered, and 15 μl thereof was subjected to western blotting after SDS electrophoresis using an anti-tyrosine phosphorylated STAT 6 antibody (Cell Signaling). Whether or not the tyrosine phosphorylation band of about 110 kDa is disappeared, which is IL-4 stimulation-dependently detected, was judged. Also, uniform transference of the STAT 6 protein was confirmed using the same transfer membrane by western blotting which used an anti-STAT 6 antibody (SantaCruz).

Row | SMILES | inhibition of STAT 6 tyrosine phosphorylation
1 | NC(=O)c1cnc(Nc2ccc(N3CCOCC3)cc2)nc1NCc1ccccc1 [Example 3, 4-benzylamino-2-{[4-(morpholin-4-yl)phenyl]amino}pyrimidine-5-carboxamide] | completely inhibited
2 | COc1ccccc1CNc1nc(Nc2ccc(N3CCOCC3)cc2)ncc1C(N)=O [Example 35] | completely inhibited
3 | Cc1cccc(Nc2nc(NCCc3ccc(O)c(Cl)c3)ncc2C(N)=O)c1 [Production Example 99] | completely inhibited

Source: US8012959B2, “Diaminopyrimidinecarboxamide derivative” (Astellas Pharma Inc., priority 2002, dated 2011)
